Test results reported in patent US20210355105A1, “REGULATOR OF NITROGEN-CONTAINING HETEROAROMATIC DERIVATIVES, PREPARATION METHOD THEREFOR AND USE THEREOF” (Jiangsu Hansoh Pharmaceutical Group Co., Ltd., priority 2018, published 2021).

What was measured:
NCI-H358 cells = assay: Proliferation inhibition of NCI-H358 cells (CellTiter-Glo); type: cell-based; conditions: Homo sapiens, NCI-H358, 72 h; 3 days incubation
Description: Experimental method: 3000 cells (90 μL of cell suspension) were inoculated to each well of a 96-well cell culture plate (Corning, #3610). The culture plate was incubated in an incubator overnight (37° C., 5% CO2). On the next day, 10 μL of gradient dilutions of the test compound solution (the final DMSO content was 0.2%, V/V, the final concentration of the reaction system ranged from 10 μM to 4.5 nM) was added to each well of the culture plate. At the same time, full activity control (compound only with DMSO) and full inhibition control (no cells) were set up on the reaction plate. The culture plate was incubated in the incubator for 3 days (37° C., 5% CO2).
After completion of the incubation, 50 μL of CellTiter-Glo reagent was added to each well of the cell culture plate, which was left to stand at room temperature for 10 minutes. The chemiluminescence signal value was measured in the Synergy H1 full-function microplate reader (BioTek). […] The IC50 value of the test compounds was calculated by fitting the percentage inhibition rate and data of eight concentrations to a four-parameter nonlinear logic formula with GraphPad prism.
The IC50 value was calculated by fitting the data of different concentrations and corresponding percentage inhibition rates to a four-parameter nonlinear logic formula with GraphPad prism.

[1] = tested on: human pancreatic cancer cell MiaPaca 2 xenograft; assay: Tumor inhibition test on MiaPaca 2 xenograft model; type: in vivo, Balb/c nude mice; conditions: intragastric
Description: Balb/c nude mice were used as test animals. In vivo pharmacodynamic test was carried out on human pancreatic cancer cell MiaPaca 2 xenograft (CDX) model to evaluate the anti-tumor effect of the test compounds.
MiaPaca 2 cells were taken from the cell bank and thawed. The cells were added to the DMEM medium (containing 10% FBS, 1% Glu and 1% P/S), and incubated in the CO2 incubator (the temperature of the incubator was 37° C., and the CO2 concentration was 5%). After the cells covered 80-90% of the bottom of the culture flask, the cells were passaged. After passage, the cells continued to be incubated in the CO2 incubator. The process was repeated until the number of cells met the inoculation requirement of the in vivo pharmacodynamic test. The cells in logarithmic growth phase were collected, and counted by the automatic cell counter. According to the counting results, the cells were resuspended with PBS and Matrigel (volume ratio: 1:1) to obtain a cell suspension (density: 8×10^7/ml), which was placed in an ice box for later use.
Female Balb/c nude mice (6-8 weeks old, body weight: about 18-22 grams) were used as test animals. The mice were maintained in an environment free of special pathogens and in a single ventilated cage (five mice per cage). All cages, bedding and water were disinfected before use. All animals had free access to standard certified commercial laboratory animal diets. The nude mice were marked with a disposable universal ear tag for rats and mice before the test. The skin of the inoculation site was disinfected with 75% medical alcohol before the inoculation. Each mouse was inoculated with 0.1 ml of MiaPaca 2 tumor cells (containing 8*10^6 cells) subcutaneously on the right back. When the average tumor volume reached 100 to 200 mm^3, administration was carried out. The test compounds were administered intragastrically daily. The tumor volume (mm^3) was measured with the vernier caliper twice a week. The tumor volume calculation formula: V=0.5*D*d*d, wherein D and d represent the long diameter and short diameter of the tumor, respectively. The anti-tumor efficacy was determined by dividing the average tumor increase volume of the compound-treated animals by the average tumor increase volume of the untreated animals. Tumor growth inhibition rate calculation formula: […]
All animals were euthanized after the experiment.

[2] = Pharmacokinetics assay in mice, oral administration; type: in vivo; conditions: mouse; male Balb/c mice, oral 5 mg/kg, plasma
Description: (§1) Balb/c mice were used as test animals.
5 g of hydroxyethyl cellulose (HEC, CMC-Na, viscosity: 800-1200 Cps) was dissolved in 1000 mL of purified water, and 10 g of Tween80 was added. The solution was mixed well to form a clear solution. […] The solution was subjected to ultrasound for 10 minutes to obtain a colorless and clear solution with a concentration of 0.5 mg/mL.
After an overnight fast, male Balb/c mice were administrated orally with the test compounds at an administration dose of 5 mg/kg and an administration volume of 10 mL/kg.
(§2) Blood was taken before administration and at 0.25 hour, 0.5 hour, 1 hour, 2 hours, 4 hours, 6 hours, 8 hours and 24 hours after administration. The blood samples were stored in EDTA-2K tubes, and centrifuged for 6 minutes at 6000 rpm, at 4° C. to separate the blood plasma. The plasma samples were stored at −80° C. The mice were fed four hours after administration.

Tolerance assay in mice = type: in vivo, Balb/c mice; conditions: 10 mg/kg QD oral
Description: as §1
The solution was subjected to ultrasound for 10 minutes to obtain a colorless and clear solution with a concentration of 1 mg/mL.
After an overnight fast, Balb/c mice (3 male and 3 female) were administrated orally with the test compound at an administration dose of 10 mg/kg and an administration volume of 10 mL/kg.
The mice were weighed daily before and after administration, and abnormal responses were observed. The mice were fed four hours after administration.

[3] = Pharmacokinetics assay in mice, single intravenous injection; type: in vivo; conditions: male Balb/c mice
Description: as §1
The solution was subjected to ultrasound to obtain a clear solution. The solution was filtered with a 0.22 μm water filter, and the filtrate was the formulation for intravenous administration (i.v.). The concentration was 0.2 mg/mL.
After an overnight fast, male Balb/c mice were administered intravenously with the test compounds at an administration dose of 1 mg/kg and an administration volume of 5 mL/kg.
as §2, with “at 0 minute, 5 minutes, 15 minutes,” for “at 0.25 hour,”, “hour, 1.0” for “hour, 1”, “hour, 2.0” for “hour, 2”, “hours, 4.0” for “hours, 4”, “hours, 8.0” for “hours, 6 hours, 8”, “and 24.0” for “and 24”

[4] = mouse, iv, i.v. 1 mg/kg, plasma

IC50 (NCI-H358 cells) [nM]	AUC(0-inf) [2] [ng·h/mL]	Cmax [2] [ng/mL]	MRT [2] [h]	Tmax [2] [h]	half-life [2] [h]	Compound	Tumor volume (Mean ± SD) Day 0 ([1]; 6 mg/kg QD × 3 w)	TGI Day 21 ([1]; 6 mg/kg QD × 3 w) [%]	Tumor volume (Mean ± SD) Day 21 ([1]; 6 mg/kg QD × 3 w) [mm^3]	ΔT/ΔC Day 21 ([1]; 6 mg/kg QD × 3 w) [%]	also measured
11.9	2210	475	4.34	0.5	3.07	Cc1nc(N2CCC3(CC2)Cc2ncsc2[C@H]3N)c(CO)nc1Sc1ccnc(N)c1Cl [Example 171, (S)-(6-((2-amino-3-chloropyridin-4-yl)thio)-3-(6-amino-4,6-dihydrospiro[cyclopenta[d]thiazole-5,4′-piperidin]-1′-yl)-5-methylpyrazin-2-yl)methanol]	167 ± 26 (168 ± 32) mm^3	95.43	198 ± 70	4.57	
20.9	2440	179	7.92	0.5	5.23	Nc1nc(N2CCC3(CC2)Cc2ccccc2[C@H]3N)c(F)nc1Sc1ccnc(N)c1Cl [Example 179, (S)-1′-(6-amino-5-((2-amino-3-chloropyridin-4-yl)thio)-3-fluoropyrazin-2-yl)-1,3-dihydrospiro[indene-2,4′-piperidin]-1-amine]	166 ± 28 (168 ± 32) mm^3	91.00	227 ± 37	9.00	Body weight (Mean) Day 1 (Tolerance assay in mice; female mice): 22.07 g; Body weight (Mean) Day 16 (Tolerance assay in mice; female mice): 25.09 g; Body weight changes ΔW/W1 (Mean) Day 16 (Tolerance assay in mice; female mice): 13.80%; Body weight (Mean) Day 1 (Tolerance assay in mice; male mice): 23.01 g; Body weight (Mean) Day 16 (Tolerance assay in mice; male mice): 28.30 g; Body weight changes ΔW/W1 (Mean) Day 16 (Tolerance assay in mice; male mice): 23.25%; F ([3]; printed in the i.v. 1 mg/kg table): 71%; AUC(0-inf) [3, 4]: 736 ng·h/mL; C0 [3, 4]: 264 ng/mL; MRT [3, 4]: 9.04 h; clearance [3, 4]: 22.6 mL/min/kg; half-life [3, 4]: 7.74 h; Vd ([3]; mouse, iv, i.v. 1 mg/kg, plasma, read-out: Vss): 12.3 L/kg
46.5	8160	1380	5.07	0.5	4.63	Nc1nc(N2CCC3(CC2)Cc2ncsc2[C@H]3N)c(F)nc1Sc1ccnc(N)c1Cl [Example 181, (S)-1′-(6-amino-5-((2-amino-3-chloropyridin-4-yl)thio)-3-fluoropyrazin-2-yl)-4,6-dihydrospiro[cyclopenta[d]thiazole-5,4′-piperidin]-6-amine]					Tumor volume (Mean ± SD) Day 0 ([1]; 10 mg/kg QD × 3 w): 176 ± 36 (176 ± 39) mm^3; TGI Day 21 ([1]; 10 mg/kg QD × 3 w): 92.94%; Tumor volume (Mean ± SD) Day 21 ([1]; 10 mg/kg QD × 3 w): 240 ± 86 mm^3; ΔT/ΔC Day 21 ([1]; 10 mg/kg QD × 3 w): 7.06%

Compound	IC50 (NCI-H358 cells) [nM]	AUC(0-inf) [2] [ng·h/mL]	Cmax [2] [ng/mL]	MRT [2] [h]	Tmax [2] [h]	half-life [2] [h]	Tumor volume (Mean ± SD) Day 0 ([1]; 6 mg/kg QD × 3 w)	TGI Day 21 ([1]; 6 mg/kg QD × 3 w) [%]	Tumor volume (Mean ± SD) Day 21 ([1]; 6 mg/kg QD × 3 w) [mm^3]	ΔT/ΔC Day 21 ([1]; 6 mg/kg QD × 3 w) [%]	also measured
Nc1nccc(Sc2cnc(N3CCC4(CC=C(C5CC5)[C@H]4N)CC3)cn2)c1Cl [Example 144, (S)-8-(5-((2-amino-3-chloropyridin-4-yl)thio)pyrazin-2-yl)-2-cyclopropyl-8-azaspiro[4.5]dec-2-en-1-amine]	9.19	5390	436	9.08	1						Tumor volume (Mean ± SD) Day 0 ([1]; 3 mg/kg QD × 3 w): 172 ± 26 (173 ± 28) mm^3; TGI Day 21 ([1]; 3 mg/kg QD × 3 w): 95.07%; Tumor volume (Mean ± SD) Day 21 ([1]; 3 mg/kg QD × 3 w): 216 ± 66 mm^3; ΔT/ΔC Day 21 ([1]; 3 mg/kg QD × 3 w): 4.93%
